Like-named read-outs stand apart in the source and are kept apart here.
Tests used:
[1] = target: T1, rat TRPV1 receptor (rTRPV1) (Rattus norvegicus, UniProt O35433); test: Fluo-4 calcium influx assay, FDSS, irTRPV1-FlpIn293 cells; assay type: cell-based
T1 construct: rat TRPV1 stably expressed under doxycycline control (Tet-on) in Flp-In T-REx-293 cells (irTRPV1-FlpIn293); homotetramer

[2] = target: T1, rat TRPV1 receptor (rTRPV1); test: cell-based
Description: Purchased capsaicinoid standards, capsiate (both MedChemExpress), vanillin (Honeywell Fluka) and 4-hydroxy-3-methoxybenzyl alcohol (Alfa Aesar) and AMG-517 (TargetMol, Boston, MA, USA) were all dissolved in DMSO to 10 mM as stock solutions. Stably transfected irTRPV1-FlpIn293 cells with Tet-on system (procedure described in Supplementary Methods 1.3) were grown to confluence in Advanced Dulbecco’s Modified Eagle Medium (Adv-DMEM/F12, #12634) supplemented with 10% FBS, 1% Pen Strep, 1% Glutamax (all Gibco, Thermo Fisher Scientific). Forty-eight hours before the experiment, doxycycline (final concentration 1 μg/mL)(Sigma-Aldrich, St.Luid, Mi., USA) and 10 μM ruthenium red (RR; Merck KGaG, Darmstadt, Germany) were added to the media to induce TRPV1 expression. After 24 hours, the cells were washed and detached with 0.5% trypsin–EDTA in PBS (Gibco). Cells resuspended in blocking media (Adv-DMEM/F12 + 10% FBS + 10 μM RR) were counted and then seeded into a 384-well plate (3674, Corning, Corning, NY, USA) in the amount of 3×10^4 per well. Twenty-four hours after seeding, a 2× Fluo-4 direct dye solution (Invitrogen, Thermo Fisher Scientific), dissolved in HHBS buffer, pH ∼ 7.4, was added to well with cells and incubated for 30 minutes at 37°C and then for 40 minutes at room temperature. Once incubated with the dye, the supernatant was removed using BlueWasher (BlueCatbio NH Inc., Lebanon, NH, USA) and changed to an HHBS + 10 μM sulfinpyrazone (Merck KGaG) solution added by Certus (Fritz Gyger AG, Gwatt, Switzerland), followed by 10 minutes of incubation in FDSS μCell (∼ 30°C; Hamamatsu, Hamamatsu city, Japan). A separate compound plate was prepared using an Echo dispenser 650 (Beckman Coulter Inc.,Brea, CA, USA). The final concentration was reached by adding HHBS + 10 μM sulfinpyrazone as above by Certus. The rTRPV1 activity measurement started by recording the baseline (40 s, sample interval 0.339 s). Then the compounds/compound mixture were transferred to the dedicated wells by tips while the recording was running for the next 5 minutes.

[3] = target: T1, rat TRPV1 receptor (rTRPV1); test: cell-based; design: species or system irTRPV1-FlpIn293 (HEK293); Fluo-4 calcium influx, FDSS, TRPV1 activation
Description: Purchased capsaicinoid standards, capsiate (both MedChemExpress), vanillin (Honeywell Fluka) and 4-hydroxy-3-methoxybenzyl alcohol (Alfa Aesar) and AMG-517 (TargetMol, Boston, MA, USA) were all dissolved in DMSO to 10 mM as stock solutions. Stably transfected irTRPV1-FlpIn293 cells with Tet-on system (procedure described in Supplementary Methods 1.3) were grown to confluence in Advanced Dulbecco’s Modified Eagle Medium (Adv-DMEM/F12, #12634) supplemented with 10% FBS, 1% Pen Strep, 1% Glutamax (all Gibco, Thermo Fisher Scientific). Forty-eight hours before the experiment, doxycycline (final concentration 1 μg/mL)(Sigma-Aldrich, St.Luid, Mi., USA) and 10 μM ruthenium red (RR; Merck KGaG, Darmstadt, Germany) were added to the media to induce TRPV1 expression. After 24 hours, the cells were washed and detached with 0.5% trypsin–EDTA in PBS (Gibco). Cells resuspended in blocking media (Adv-DMEM/F12 + 10% FBS + 10 μM RR) were counted and then seeded into a 384-well plate (3674, Corning, Corning, NY, USA) in the amount of 3×10^4 per well. Twenty-four hours after seeding, a 2× Fluo-4 direct dye solution (Invitrogen, Thermo Fisher Scientific), dissolved in HHBS buffer, pH ∼ 7.4, was added to well with cells and incubated for 30 minutes at 37°C and then for 40 minutes at room temperature. […]

[4] = Flp-In-T-REx-293; read-out: Top

T1 sequence (O35433 whole entry): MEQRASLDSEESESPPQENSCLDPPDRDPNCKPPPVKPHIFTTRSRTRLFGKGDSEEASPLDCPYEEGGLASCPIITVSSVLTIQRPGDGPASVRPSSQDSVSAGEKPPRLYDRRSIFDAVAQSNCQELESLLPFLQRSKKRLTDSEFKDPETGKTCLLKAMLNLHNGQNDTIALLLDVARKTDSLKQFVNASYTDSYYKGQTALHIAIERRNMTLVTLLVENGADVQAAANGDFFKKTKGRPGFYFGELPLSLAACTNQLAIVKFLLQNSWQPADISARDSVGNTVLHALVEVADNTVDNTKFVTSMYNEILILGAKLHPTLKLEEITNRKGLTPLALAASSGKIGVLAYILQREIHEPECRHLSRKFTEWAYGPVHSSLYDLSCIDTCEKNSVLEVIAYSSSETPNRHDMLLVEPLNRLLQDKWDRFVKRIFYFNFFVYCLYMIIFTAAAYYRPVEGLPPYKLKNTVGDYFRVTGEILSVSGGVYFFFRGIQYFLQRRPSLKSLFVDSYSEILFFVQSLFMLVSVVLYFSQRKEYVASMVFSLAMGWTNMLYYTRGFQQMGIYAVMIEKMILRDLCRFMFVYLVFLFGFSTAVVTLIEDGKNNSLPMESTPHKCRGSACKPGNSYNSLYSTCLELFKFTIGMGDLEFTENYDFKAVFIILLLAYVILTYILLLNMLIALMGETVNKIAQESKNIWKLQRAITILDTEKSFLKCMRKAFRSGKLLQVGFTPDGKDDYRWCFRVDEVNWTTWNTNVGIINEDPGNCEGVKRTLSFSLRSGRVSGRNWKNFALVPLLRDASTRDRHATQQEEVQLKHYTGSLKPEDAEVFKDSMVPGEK

Row | Structure (SMILES) | EC50 ([1]; read-out: EC50) [nM] | Emax [2, 4] [%] | other results
1 | COc1cc(CNC(=O)CCCCCCC(C)C)ccc1O [compound 2, Dihydrocapsaicin] | 50 |  | 
2 | COc1cc(CNC(=O)CCCCCCCC(C)C)ccc1O [compound 4, Homodihydrocapsaicin I] | 320 |  | 
3 | COc1cc(CNC(=O)CC/C=C/C(C)C)ccc1O [compound 10, Nornorcapsaicin] | 810 | 77.8 | 
4 | COc1cc(CNC(=O)CCCCCC(C)C)ccc1O [compound 11, Nordihydrocapsaicin] |  |  | EC50 [2]: 53.4 nM
5 | CCCCCCCC(=O)NCc1ccc(O)c(OC)c1 [compound 13, N-vanillyl octanamide] | 150 | 93.7 | 
6 | CCCCCCCCCC(=O)NCc1ccc(O)c(OC)c1 [compound 14, N-Vanillyldecanamide] | 200 | 114 | 
7 | COc1cc(CNC(=O)CC/C=C/C=C/C(C)C)ccc1O [compound 16, N-vanillyl-4E,6E-dien-8-methylnonanamide] | 140 | 94.3 | 
8 | CCCCCCCCC(=O)NCc1ccc(O)c(OC)c1 [compound 17, Nonivamide] |  |  | Emax ([2]; Flp-In-T-REx-293, read-out: Top): 105%
9 | CCCCCCCC/C=C\CCCCCCCC(=O)NCc1ccc(O)c(OC)c1 [compound 20, Olvanil] | 120 | 40.4 | 
10 | COc1cc(CNC(=O)CCCC/C=C/C(C)CO)ccc1O (stereo not drawn) [compound 22, ω-Hydroxycapsaicin] | 5560 | 90 | 
11 | COc1cc(CNC(=O)CCCC/C=C/C(C)C)cc(-c2cc(CNC(=O)CCCCCCC(C)C)cc(OC)c2O)c1O [compound 23, 6″,7″-Dihydro-5′,5‴-dicapsaicin] |  | 90.7 | EC50 [2]: 10300 nM; EC50 ([1]; agonist, HHBS pH ~7.4, ~30 °C, unreliable (sample 79.94% pure, trace monomers may inflate the potency), read-out: EC50): 10270 nM
12 | COc1cc(CNC(=O)CCCC/C=C/C(C)C)ccc1O[C@@H]1O[C@H](CO)[C@@H](O)[C@H](O)[C@H]1O [compound 24, Capsaicin β-D-glucopyranoside] | 4690 | 102 | 
13 | CCCCCCC(=O)NCc1ccc(O)c(OC)c1 [compound 26, N-Heptanoate vanillylamide] | 1810 | 114 | 
14 | COc1cc(CNC(=O)CCCCC(C)C)ccc1O [compound 27, Nornordihydrocapsaicin] | 1040 | 94.8 | 
15 | COc1cc(CNC(=O)CC(C)C)ccc1O [compound 30, N-isovalerylvanillylamin] | 2840 | 80 | 
16 | COc1cc(CNC(=O)CCCCCC(=O)C(C)C)ccc1O [compound 31, N-(4-Hydroxy-3-methoxybenzyl)-8-methyl-7-oxononanamide] | 560 | 84.2 | EC50 [2]: 602 nM
17 | COc1cc(CNC(=O)CCCCC2OC2C(C)C)ccc1O (stereo not drawn) [compound 32, Epicapsaicin] | 600 | 110 | EC50 [2]: 1110 nM
18 | COc1cc(CNC(=O)CCCCCCCC(C)O)ccc1O (stereo not drawn) [compound 33, N-vanillyl-9-hydroxydecanamide] | 6330 | 96.5 | 
19 | COc1cc(CNC(=O)CCCCCC(O)C(C)C)ccc1O (stereo not drawn) [compound 34, N-vanillyl-7-hydroxy-8-methylnonamide] | 1460 | 90.6 | 
20 | COc1cc(CNC(=O)C=CC=CC(C)C)ccc1O [compound 35, N-vanillyl 6-Methyl-2,4-heptadienamide] | 1200 | 77.8 | 
21 | COc1cc(CNC(=O)CCCC/C=C/C(C)C)cc(-c2cc(CNC(=O)CCCC/C=C/C(C)C)cc(OC)c2O)c1O [compound 38, 5,5’-dicapsaicin] |  | 83.3 | EC50 ([1]; agonist, HHBS pH ~7.4, ~30 °C, unreliable (trace monomers may inflate the potency)): 4.46E-06 (95% CI 3.848e-006 to 5.265e-006) M
22 | COc1cc(COC(=O)CCCC/C=C/C(C)C)ccc1O [compound 39, capsiate] |  |  | EC50 [3]: 491000 nM
